In patent publication US20240368169A1 (priority 2021, published 2024):
pIC50: −log10 of the molar value.

Assays:
MDA-MB-436 cells = assay: Growth inhibition assay against BRCA mutant human breast cancer MDA-MB-436 cell line (CCK-8, 7 days); type: cell-based
[1] = target: recombinant poly(ADP-ribose) polymerase 2 (PARP2) (Homo sapiens, UniProt Q9UGN5); assay: biochemical; conditions: inhibition of PARP2 enzyme activity, chemiluminescence
[2] = target: recombinant poly(ADP-ribose) polymerase 1 (PARP1) (Homo sapiens, UniProt P09874); assay: biochemical; conditions: inhibition of PARP1 enzyme activity, chemiluminescence
Sequence of recombinant poly(ADP-ribose) polymerase 1 (PARP1) (P09874 whole entry): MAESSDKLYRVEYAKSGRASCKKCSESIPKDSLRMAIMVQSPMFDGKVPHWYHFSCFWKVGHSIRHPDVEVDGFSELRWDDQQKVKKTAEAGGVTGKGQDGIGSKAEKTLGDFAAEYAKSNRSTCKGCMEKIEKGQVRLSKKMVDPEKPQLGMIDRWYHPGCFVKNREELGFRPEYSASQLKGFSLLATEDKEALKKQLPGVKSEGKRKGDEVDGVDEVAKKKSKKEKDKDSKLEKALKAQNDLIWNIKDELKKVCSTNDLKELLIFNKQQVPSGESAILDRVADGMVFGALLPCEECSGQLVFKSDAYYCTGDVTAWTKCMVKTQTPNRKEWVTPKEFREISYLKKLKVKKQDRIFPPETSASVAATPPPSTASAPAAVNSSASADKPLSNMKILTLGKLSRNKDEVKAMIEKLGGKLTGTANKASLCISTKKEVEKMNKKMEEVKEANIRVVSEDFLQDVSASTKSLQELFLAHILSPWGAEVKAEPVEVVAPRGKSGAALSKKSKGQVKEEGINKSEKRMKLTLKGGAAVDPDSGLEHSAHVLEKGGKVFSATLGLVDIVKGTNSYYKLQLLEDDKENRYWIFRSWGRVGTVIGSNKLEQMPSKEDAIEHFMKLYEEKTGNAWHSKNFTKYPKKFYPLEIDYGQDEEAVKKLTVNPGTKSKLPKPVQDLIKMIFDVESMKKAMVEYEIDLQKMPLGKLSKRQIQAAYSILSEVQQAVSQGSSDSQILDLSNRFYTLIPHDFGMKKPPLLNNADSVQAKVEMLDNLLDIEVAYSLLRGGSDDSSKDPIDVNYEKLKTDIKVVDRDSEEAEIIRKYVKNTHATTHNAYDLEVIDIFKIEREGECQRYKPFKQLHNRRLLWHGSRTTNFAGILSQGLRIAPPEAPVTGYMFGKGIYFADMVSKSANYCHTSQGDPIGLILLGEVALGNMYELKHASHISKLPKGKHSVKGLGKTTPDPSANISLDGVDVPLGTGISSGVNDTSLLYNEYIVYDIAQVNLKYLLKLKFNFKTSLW

Sequence of recombinant poly(ADP-ribose) polymerase 2 (PARP2) (Q9UGN5 whole entry): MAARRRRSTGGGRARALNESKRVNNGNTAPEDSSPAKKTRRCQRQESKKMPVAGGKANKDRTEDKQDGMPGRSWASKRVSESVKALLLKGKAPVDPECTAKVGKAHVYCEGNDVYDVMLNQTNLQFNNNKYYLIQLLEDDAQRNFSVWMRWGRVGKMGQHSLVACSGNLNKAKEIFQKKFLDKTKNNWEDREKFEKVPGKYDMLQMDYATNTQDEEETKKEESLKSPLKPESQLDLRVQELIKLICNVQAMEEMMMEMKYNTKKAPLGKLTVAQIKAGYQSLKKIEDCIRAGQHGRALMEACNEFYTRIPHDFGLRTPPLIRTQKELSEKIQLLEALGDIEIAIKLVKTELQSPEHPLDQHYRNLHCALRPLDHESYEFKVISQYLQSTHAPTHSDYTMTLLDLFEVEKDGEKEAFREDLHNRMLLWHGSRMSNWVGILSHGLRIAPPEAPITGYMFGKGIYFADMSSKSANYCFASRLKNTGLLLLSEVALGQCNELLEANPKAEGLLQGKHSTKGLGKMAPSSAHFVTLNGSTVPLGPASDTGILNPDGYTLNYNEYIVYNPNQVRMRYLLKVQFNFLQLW

| SMILES | pIC50 (MDA-MB-436 cells) | IC50 [1] [nM] | IC50 [2] [nM] |
| --- | --- | --- | --- |
| Cc1nc(C(=O)NC2CC2)ccc1N1CCN(Cc2cc(F)c3c(c2)[nH]c(=O)c2cccn23)CC1 [Example 66, 7-((4-(2-methyl-6-(cyclopropylcarbamoyl)pyridin-3-yl)piperazin-1-yl)methyl)-9-fluoropyrrolo[1,2-a]quinoxalin-4(5H)-one] | 8.78 | 66.1 | 1.63 |
| CNC(=O)c1ccc(N2CCN(Cc3cc(F)c4c(c3)[nH]c(=O)c3ccnn34)CC2)c(F)n1 [Example 44, 7-((4-(2-fluoro-6-(methylcarbamoyl)pyridin-3-yl)piperazin-1-yl)methyl)-9-fluoropyrazolo[1,5-a]quinoxalin-4(5H)-one] | 8.66 | 318 | 1.76 |
| CNC(=O)c1ccc(N2CCN(Cc3ccc4c(c3)[nH]c(=O)c3ccnn34)CC2)c(F)n1 [Example 36, 7-((4-(2-fluoro-6-(methylcarbamoyl)pyridin-3-yl)piperazin-1-yl)methyl)pyrazolo[1,5-a]quinoxalin-4(5H)-one] | 8.95 | 41.4 | 0.44 |
| CNC(=O)c1ccc(N2CCN(Cc3ccc4c(c3)[nH]c(=O)c3ccc(C)n34)CC2)c(C)n1 [Example 54, 7-((4-(2-methyl-6-(methylcarbamoyl)pyridin-3-yl)piperazin-1-yl)methyl)-1-methylpyrrolo[1,2-a]quinoxalin-4(5H)-one] | 8.73 | 12.7 | 1.32 |
| CCNC(=O)c1ccc(N2CCN(Cc3cc(F)c4c(c3)[nH]c(=O)c3ccnn34)CC2)c(C)n1 [Example 91, 7-((4-(2-methyl-6-(ethylcarbamoyl)pyridin-3-yl)piperazin-1-yl)methyl)-9-fluoropyrazolo[1,5-a]quinoxalin-4(5H)-one] | 8.55 | 627 | 1.39 |
| CNC(=O)c1ccc(N2CCN(Cc3cc(C)c4c(c3)[nH]c(=O)c3ccnn34)CC2)c(C)n1 [Example 102, 7-((4-(2-methyl-6-(methylcarbamoyl)pyridin-3-yl)piperazin-1-yl)methyl)-9-methylpyrazolo[1,5-a]quinoxalin-4(5H)-one] | 8.65 | 101 | 6.91 |
| CNC(=O)c1ccc(N2CCN(Cc3ccc4c(c3)[nH]c(=O)c3c(C)c(C)nn34)CC2)c(C)n1 [Example 101, 7-((4-(2-methyl-6-(methylcarbamoyl)pyridin-3-yl)piperazin-1-yl)methyl)-2,3-dimethylpyrazolo[1,5-a]quinoxalin-4(5H)-one] | 8.61 | 35.6 | 4.43 |
| CNC(=O)c1ccc(N2CCN(Cc3ccc4c(c3)[nH]c(=O)c3cc(C)nn34)CC2)c(C)n1 [Example 57, 7-((4-(2-methyl-6-(methylcarbamoyl)pyridin-3-yl)piperazin-1-yl)methyl)-2-methylpyrazolo[1,5-a]quinoxalin-4(5H)-one] | 8.84 | 67.9 | 1.77 |
| CNC(=O)c1ccc(N2CCN(Cc3cc(F)c4c5c(c(=O)[nH]c4c3)CCC5)CC2)c(F)n1 [Example 80, 7-((4-(2-fluoro-6-(methylcarbamoyl)pyridin-3-yl)piperazin-1-yl)methyl)-9-fluoro-1,2,3,5-tetrahydro-4H-cyclopenta[c]quinolin-4-one] | 8.63 | 32 | 2.26 |
| CNC(=O)c1ccc(N2CCN(Cc3ccc4c5c(c(=O)[nH]c4c3)COC5)CC2)c(C)n1 [Example 4, 7-((4-(2-methyl-6-(methylcarbamoyl)pyridin-3-yl)piperazin-1-yl)methyl)-3,5-dihydrofuro[3,4-c]quinolin-4(1H)-one] | 8.37 | 188 | 1.59 |
| CNC(=O)c1ccc(N2CCN(Cc3ccc4c(c3)[nH]c(=O)c3cc(C)nn34)CC2)c(F)n1 [Example 69, 7-((4-(2-fluoro-6-(methylcarbamoyl)pyridin-3-yl)piperazin-1-yl)methyl)-2-methylpyrazolo[1,5-a]quinoxalin-4(5H)-one] | 8.97 | 49.9 | 2.32 |
| CNC(=O)c1ccc(N2CCN(Cc3ccc4c([nH]c(=O)c5cc(Cl)nn54)c3F)CC2)c(C)n1 [Example 103, 7-((4-(2-methyl-6-(methylcarbamoyl)pyridin-3-yl)piperazin-1-yl)methyl)-6-fluoro-2-chloropyrazolo[1,5-a]quinoxalin-4(5H)-one] | 8.93 | 1250 | 0.76 |
| CNC(=O)c1ccc(N2CCN(Cc3cc(F)c4c(c3)[nH]c(=O)c3cscc34)CC2)c(C)n1 [Example 86, 7-((4-(2-methyl-6-(methylcarbamoyl)pyridin-3-yl)piperazin-1-yl)methyl)-9-fluorothieno[3,4-c]quinolin-4(5H)-one] | – | 13.3 | 0.66 |
| CNC(=O)c1ccc(N2CCN(Cc3ccc4c([nH]c(=O)c5ccnn54)c3C)CC2)c(F)n1 [Example 133, 7-((4-(2-fluoro-6-(methylcarbamoyl)pyridin-3-yl)piperazin-1-yl)methyl)-6-methylpyrazolo[1,5-a]quinoxalin-4(5H)-one] | – | 222 | 1.5 |
| CNC(=O)c1ccc(N2CCN(Cc3ccc4c(c3)[nH]c(=O)c3cscc34)CC2)c(C)n1 [Example 83, 7-((4-(2-methyl-6-(methylcarbamoyl)pyridin-3-yl)piperazin-1-yl)methyl)thieno[3,4-c]quinolin-4(5H)-one] | – | 18.3 | 1.08 |
| CNC(=O)c1ccc(N2CCN(Cc3cc(F)c4c(c3)[nH]c(=O)n3ccnc43)CC2)c(F)n1 [Example 53, 8-((4-(2-fluoro-6-(methylcarbamoyl)pyridin-3-yl)piperazin-1-yl)methyl)-10-fluoroimidazo[1,2-c]quinazolin-5(6H)-one] | – | 1950 | 2.34 |
| CNC(=O)c1ccc(N2CCN(Cc3ccc4c(c3)[nH]c(=O)c3c(C)c(C)nn34)CC2)c(F)n1 [Example 125, 7-((4-(2-fluoro-6-(methylcarbamoyl)pyridin-3-yl)piperazin-1-yl)methyl)-2,3-dimethylpyrazolo[1,5-a]quinoxalin-4(5H)-one] | – | 3.7 | 1.05 |
| O=C(NC1CC1)c1ccc(N2CCN(Cc3ccc4c([nH]c(=O)c5ccnn54)c3F)CC2)c(F)n1 [Example 111, 7-((4-(2-fluoro-6-(cyclopropylcarbamoyl)pyridin-3-yl)piperazin-1-yl)methyl)-6-fluoropyrazolo[1,5-a]quinoxalin-4(5H)-one] | – | 455 | 1.27 |
| CNC(=O)c1ccc(N2CCN(Cc3ccc4c([nH]c(=O)c5cc(Cl)nn54)c3F)CC2)c(F)n1 [Example 112, 7-((4-(2-fluoro-6-(methylcarbamoyl)pyridin-3-yl)piperazin-1-yl)methyl)-6-fluoro-2-chloropyrazolo[1,5-a]quinoxalin-4(5H)-one] | – | 223 | 0.57 |
| CNC(=O)c1ccc(N2CCN(Cc3ccc4c([nH]c(=O)c5ccnn54)c3C)CC2)c(C)n1 [Example 129, 7-((4-(2-methyl-6-(methylcarbamoyl)pyridin-3-yl)piperazin-1-yl)methyl)-6-methylpyrazolo[1,5-a]quinoxalin-4(5H)-one] | – | 369 | 1.48 |
